Assay results reported in article PMC5572697, “A first-in-human study of the novel HIV-fusion inhibitor C34-PEG4-Chol” (Scientific Reports, 2017).
Entries after “also recorded” stand apart in the source; their conditions may differ.

Tests used:
[1] = Repeat-dose toxicity study in mice; type: in vivo; settings: mouse, in vivo, sc, subcutaneous, daily for 14 days, 7-day recovery, read-out: No-observed-adverse-effect-level (NOAEL)
Experimental: Pre-clinical toxicology studies were conducted in 2 species (rodent/mice and non-rodent/dogs). Multiple high doses of C34-PEG4-Chol, up to 12 mg/kg or 10 x the maximum proposed human dose, were administered daily in mice and twice weekly (the intended frequency in humans) in dogs for 14 days, with a 7-day recovery period for both species. […] Toxicology results were analysed independently by the Medicines and Healthcare Regulatory Authority (MHRA), UK before a decision was made to proceed with trial in humans.
Repeat-dose toxicity studies were conducted in mice (n = 20 at 6 mg/kg/day, n = 20 at 12 mg/kg/day) and dogs (n = 6 at 6 mg/kg/day, n = 6 at 12 mg/kg/day). The subcutaneous route of administration was selected for both species. The highest dose of 12 mg/kg/day was based on the maximal achievable dose with the formulation, and corresponded to 10x the maximum proposed human dose (80 mg, 1.15 mg/kg). No premature decedents occurred in either species. Following observation, animals were euthanised.

HIV-positive men = assay: First-in-human safety and injection site reaction (ISR) grading; type: in vivo; settings: for ISR grade: one participant
Experimental: Dosing was commenced at the lowest dose of 10 mg in a volume of 1 mL. Randomisation was undertaken using the InForm™ Integrated Trial Management system and was on a 1:1 basis, with no predefined stratifications. All clinical study staff were blinded. Clinical research pharmacists who were not part of the clinical research team, were not blinded in order to reconstitute study products. These members of the research pharmacy team had no involvement in the clinical care of participants during study procedures.
At all study time-points, participants were reviewed for ISRs, a symptom-directed physical examination was performed and blood samples were collected for full blood picture, electrolytes, liver enzymes, amylase and glucose. An electrocardiogram was performed pre-dose and 4 and 12 hours after dosing. A decision to proceed with dose escalation was made only after all four participants in each dose cohort had been observed for a minimum of 7 days for safety assessments. All safety data were reviewed by an independent data monitoring committee (IDMC).
Supplementary Information 1:
Table S1: List of injection site reactions (ISR) grading

in vivo = settings: rhesus monkey, rhesus monkeys; for AUC(0-inf): plasma LC-MS, mean of three animals per point
Experimental: C34-PEG4-Chol first in man – Supplementary Information
Supplementary Information 2:
Preclinical Pharmacokinetics of C34-PEG4-Chol […]
C34-PEG4-Chol was formulated in 10 mM phosphate buffered saline (pH 7.2). The concentration of C34-PEG4-Chol in plasma samples was determined by LC-MS as previously […]
Figure S4. Pharmacokinetics of C34-PEG4-Chol in rhesus monkeys 2.0 mg/kg or 1.0 mg/kg (SC and IV administration, respectively) of C34-PEG4-Chol in 10mM phosphate buffered saline (PBS) were administered to rhesus monkeys: volume of administration 0.5 mL/kg. The concentration of the dosing solution was determined immediately after dosing with the same analytical method utilized to monitor peptide plasma concentration with time, and the analytical curves were adjusted accordingly. Each data point is the mean of three animals.
Table S4. Calculated pharmacokinetics parameters of C34-PEG4-Chol in rhesus monkeys, following intravenous (IV) and subcutaneous (SC) administration. […]

Q: With `CC[C@H](C)[C@H](NC(=O)[C@H](CC(C)C)NC(=O)[C@H](CO)NC(=O)[C@H](Cc1c[nH]cn1)NC(=O)[C@@H](NC(=O)[C@H](CC(C)C)NC(=O)[C@H](CO)NC(=O)[C@@H](NC(=O)[C@H](Cc1ccc(O)cc1)NC(=O)[C@H](CC(N)=O)NC(=O)[C@H](CC(N)=O)NC(=O)[C@@H](NC(=O)[C@H](CCC(=O)O)NC(=O)[C@H](CCCNC(=N)N)NC(=O)[C@H](CC(=O)O)NC(=O)[C@H](Cc1c[nH]c2ccccc12)NC(=O)[C@H](CCC(=O)O)NC(=O)[C@H](CCSC)NC(=O)[C@H](Cc1c[nH]c2ccccc12)NC(C)=O)[C@@H](C)CC)[C@@H](C)O)[C@@H](C)CC)C(=O)N[C@@H](CCC(=O)O)C(=O)N[C@@H](CCC(=O)O)C(=O)N[C@@H](CO)C(=O)N[C@@H](CCC(N)=O)C(=O)N[C@@H](CC(N)=O)C(=O)N[C@@H](CCC(N)=O)C(=O)N[C@@H](CCC(N)=O)C(=O)N[C@@H](CCC(=O)O)C(=O)N[C@@H](CCCCN)C(=O)N[C@@H](CC(N)=O)C(=O)N[C@@H](CCC(=O)O)C(=O)N[C@@H](CCC(N)=O)C(=O)N[C@@H](CCC(=O)O)C(=O)N[C@@H](CC(C)C)C(=O)N[C@@H](CC(C)C)C(=O)NCC(=O)N[C@@H](CO)C(=O)NCC(=O)N[C@@H](CSCC(=O)NCCOCCOCCOCCOCCC(=O)O[C@H]1CC[C@@]2(C)C(=CC[C@H]3[C@@H]4CC[C@H]([C@H](C)CCCC(C)C)[C@@]4(C)CC[C@@H]32)C1)C(N)=O` [C34-PEG4-Chol] as the molecule, how does the NOAEL at 336 h [1] read?
A: Its NOAEL at 336 h is 12 mg/kg/day.

Q: What about the “Individuals with grade 3 ISR among those administered active drug” value (HIV-positive men; 3 men received active drug (10 mg, 10 mg, 20 mg), subcutaneous) of the same molecule?
A: Its value is 2 out of 3.

Q: What about the ISR grade (HIV-positive men; single subcutaneous 10 mg dose) of the same molecule?
A: The ISR grade was “grade 3”.

Q: And the ISR grade (HIV-positive men; single subcutaneous 20 mg dose)?
A: Its ISR grade is “grade 3”.

Q: What about the “Systemic clinical or laboratory toxicities” value (HIV-positive men; single subcutaneous 10 or 20 mg, 84 days follow up) of the same molecule?
A: Its value is “No systemic toxicities were observed; also recorded: No systemic clinical toxicities or laboratory defined toxicities were observed”.

Q: And the clearance (in vivo; IV 1.0 mg/kg)?
A: Its clearance is 4.68 mL/h/kg.

Q: What about the AUC(0-inf) (in vivo; IV 1.0 mg/kg in 10 mM PBS) of the same molecule?
A: Its AUC(0-inf) is 41.5 µM·h.

Q: And the Vd (in vivo; IV 1.0 mg/kg, read-out: Vdss)?
A: The Vd was 0.055 L/kg.

Q: And the half-life (in vivo; IV 1.0 mg/kg, read-out: t½ (converted))?
A: Its half-life is 8.5 h.

Q: And the Cmax (in vivo; SC 2.0 mg/kg)?
A: Its Cmax is 1150 nM.

Q: And the Tmax (in vivo; SC 2.0 mg/kg)?
A: Its Tmax is 6.7 h.

Q: And the bioavailability (in vivo; SC 2.0 mg/kg)?
A: The bioavailability was 45.3%.

Q: What about the AUC(0-inf) (in vivo; SC 2.0 mg/kg in 10 mM PBS) of the same molecule?
A: Its AUC(0-inf) is 37.5 µM·h.
